# According to ChEMBL document CHEMBL1201862, “PubChem BioAssay data set” (2004):
# Where a name gives a salt, the structure may show the parent alone. Activity calls are given as the source filed them.
# Columns and labels:
# [1] = non-specific 3'UTR reporter inhibition in Clone20-Shn3RL – cell-based, Renilla luciferase, cherry-picked, counter-screen for Shn3 inhibitor project, dose response (AID 624133); assay type: functional
# [2] = loss of viability in HepG2 cells – cell-based, CellTiter-Glo, cherry-picked, cytotoxicity control for Shn3 inhibitor project, dose response (AID 624134); assay type: functional
# [3] = reduction of Shn3 3'UTR-driven luciferase in osteoblasts – cell-based, Clone20 osteoblasts, firefly luciferase, cherry-picked, dose response (AID 624132); assay type: functional;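 note: firefly luciferase luminescence from reporter carrying the Shn3 3'UTR in osteoblasts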
# cells = assay type: functional
# Troponin, cardiac muscle = Troponin, cardiac muscle (Homo sapiens, UniProt P19429+P45379+P63316); test: Fluorescence-based biochemical high throughput dose response assay for activators of the calcium sensitivity of cardiac Regulated Thin Filaments (RTF). [Related pubchem assays (depositor defined):AID493008, AID493018, AID504382, AID504383]; assay type: protein-complex assay
# Escherichia coli = test: microbe, parasite or virus in culture
# [4] = biological target: Photoreceptor-specific nuclear receptor (Homo sapiens, UniProt Q9Y5X4); assay type: functional, cell-based;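 note: CHO-S cells with Gal4-NCOR and VP16-NR2E3 two-hybrid luciferase reporter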
# [5] = biological target: Eukaryotic translation initiation factor 4E (Mus musculus, UniProt P63073); test: blockers of eIF4G binding by eIF4E – biochemical, TR-FRET, dose response (AID 855); assay type: functional;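 note: potency for disrupting eIF4E binding to eIF4GI seen as loss of FRET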
# Caspase-3 = biological target: T1, Caspase-3 (Homo sapiens, UniProt P42574); assay type: functional;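 note: Dose-response selectivity test against caspase-3 for candidate inhibitors of sentrin-specific proteases (SENPs)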
# T1 sequence (P42574 whole entry): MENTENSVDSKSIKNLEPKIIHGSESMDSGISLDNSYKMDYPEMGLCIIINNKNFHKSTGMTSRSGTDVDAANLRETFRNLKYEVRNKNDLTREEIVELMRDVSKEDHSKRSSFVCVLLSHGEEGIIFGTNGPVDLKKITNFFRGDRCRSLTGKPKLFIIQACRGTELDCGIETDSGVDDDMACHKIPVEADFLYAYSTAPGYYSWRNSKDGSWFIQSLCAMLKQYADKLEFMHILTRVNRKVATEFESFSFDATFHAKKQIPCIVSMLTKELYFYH
# [6] = biological target: T2, Sentrin-specific protease 6 (Homo sapiens, UniProt Q9GZR1); assay type: functional;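 note: Luminescence-based dose-response confirmatory assay of SENP6 inhibition, following up an ultra-high-throughput screen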
# T2 sequence (Q9GZR1 whole entry): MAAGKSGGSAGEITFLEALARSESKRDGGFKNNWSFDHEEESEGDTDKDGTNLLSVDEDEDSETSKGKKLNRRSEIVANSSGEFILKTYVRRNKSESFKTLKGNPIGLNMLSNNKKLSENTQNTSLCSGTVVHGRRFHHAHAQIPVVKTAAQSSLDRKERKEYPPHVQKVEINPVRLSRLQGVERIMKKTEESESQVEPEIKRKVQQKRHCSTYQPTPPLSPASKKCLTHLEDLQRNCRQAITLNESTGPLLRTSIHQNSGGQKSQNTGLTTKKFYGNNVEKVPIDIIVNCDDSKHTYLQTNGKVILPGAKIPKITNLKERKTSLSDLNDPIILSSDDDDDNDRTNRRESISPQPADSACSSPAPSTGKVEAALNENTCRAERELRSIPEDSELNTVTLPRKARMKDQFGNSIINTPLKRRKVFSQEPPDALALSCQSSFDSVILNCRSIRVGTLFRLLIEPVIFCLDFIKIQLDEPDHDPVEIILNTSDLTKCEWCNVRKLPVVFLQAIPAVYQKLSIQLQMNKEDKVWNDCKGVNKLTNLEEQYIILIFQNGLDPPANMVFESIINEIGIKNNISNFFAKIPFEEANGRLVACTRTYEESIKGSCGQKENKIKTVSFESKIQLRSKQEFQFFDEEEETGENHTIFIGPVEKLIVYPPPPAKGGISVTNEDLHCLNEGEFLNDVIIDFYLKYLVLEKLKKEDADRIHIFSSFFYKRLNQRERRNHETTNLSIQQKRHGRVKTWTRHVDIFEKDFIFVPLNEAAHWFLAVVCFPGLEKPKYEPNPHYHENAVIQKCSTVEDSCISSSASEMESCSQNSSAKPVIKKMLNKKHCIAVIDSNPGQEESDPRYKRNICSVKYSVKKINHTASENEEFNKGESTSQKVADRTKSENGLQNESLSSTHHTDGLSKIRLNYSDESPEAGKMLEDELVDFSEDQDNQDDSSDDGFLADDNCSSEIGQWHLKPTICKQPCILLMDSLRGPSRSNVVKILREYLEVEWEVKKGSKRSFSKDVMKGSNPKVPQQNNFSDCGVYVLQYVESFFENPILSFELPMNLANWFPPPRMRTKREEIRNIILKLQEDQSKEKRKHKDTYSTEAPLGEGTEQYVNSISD
# [7] = biological target: Dual specificity tyrosine-phosphorylation-regulated kinase 1A (Rattus norvegicus, UniProt Q63470); assay type: biochemical, Homo sapiens
# [8] = biological target: T3, Sentrin-specific protease 8 (Homo sapiens, UniProt Q96LD8); assay type: functional
# T3 sequence (Q96LD8 whole entry): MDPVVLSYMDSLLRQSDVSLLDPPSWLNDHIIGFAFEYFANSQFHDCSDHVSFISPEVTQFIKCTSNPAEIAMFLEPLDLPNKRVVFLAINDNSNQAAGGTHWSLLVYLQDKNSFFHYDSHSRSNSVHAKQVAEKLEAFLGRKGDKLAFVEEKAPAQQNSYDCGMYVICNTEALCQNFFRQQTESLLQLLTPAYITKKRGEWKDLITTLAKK
# [9] = biological target: T4, Sentrin-specific protease 7 (Homo sapiens, UniProt Q9BQF6); assay type: functional;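 note: Luminescence-based dose-response confirmation of ultra-high-throughput screening hits, measuring inhibition of SENP7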
# T4 sequence (Q9BQF6 whole entry): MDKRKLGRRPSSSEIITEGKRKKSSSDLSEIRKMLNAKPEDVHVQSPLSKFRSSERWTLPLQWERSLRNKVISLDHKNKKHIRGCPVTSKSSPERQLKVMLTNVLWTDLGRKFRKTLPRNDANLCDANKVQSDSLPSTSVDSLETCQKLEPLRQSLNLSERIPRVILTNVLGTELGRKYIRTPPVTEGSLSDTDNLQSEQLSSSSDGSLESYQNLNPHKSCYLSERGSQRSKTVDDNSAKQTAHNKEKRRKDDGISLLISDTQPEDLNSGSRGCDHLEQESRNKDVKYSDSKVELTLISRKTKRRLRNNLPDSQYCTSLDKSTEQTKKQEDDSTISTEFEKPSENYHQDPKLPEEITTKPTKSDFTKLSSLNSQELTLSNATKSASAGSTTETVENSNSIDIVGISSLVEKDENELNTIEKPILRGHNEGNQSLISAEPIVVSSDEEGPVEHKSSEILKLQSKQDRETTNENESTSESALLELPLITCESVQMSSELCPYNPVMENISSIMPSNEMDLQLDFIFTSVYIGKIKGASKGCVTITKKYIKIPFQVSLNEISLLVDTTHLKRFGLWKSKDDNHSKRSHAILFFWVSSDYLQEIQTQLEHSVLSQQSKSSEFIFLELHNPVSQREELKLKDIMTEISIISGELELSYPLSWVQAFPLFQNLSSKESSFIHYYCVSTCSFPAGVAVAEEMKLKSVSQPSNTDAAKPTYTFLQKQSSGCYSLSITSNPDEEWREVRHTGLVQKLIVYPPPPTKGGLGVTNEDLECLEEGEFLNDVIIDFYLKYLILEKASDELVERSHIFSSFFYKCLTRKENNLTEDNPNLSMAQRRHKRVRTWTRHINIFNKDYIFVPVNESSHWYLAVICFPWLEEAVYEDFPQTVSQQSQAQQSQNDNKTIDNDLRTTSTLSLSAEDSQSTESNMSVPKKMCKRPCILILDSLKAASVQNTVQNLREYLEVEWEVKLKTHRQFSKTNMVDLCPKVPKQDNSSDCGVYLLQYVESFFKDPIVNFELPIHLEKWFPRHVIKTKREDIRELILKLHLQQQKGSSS
# [10] = biological target: T3, Sentrin-specific protease 8; assay type: functional; remark: listed apart in the source
# [11] = biological target: T3, Sentrin-specific protease 8; assay type: functional; remark: listed apart in the source
# Beta-galactosidase = Beta-galactosidase (Escherichia coli, UniProt Q8VNN2); test: Dose response counterscreen for EBI2 assay utilizing the enzyme, b-galactosidase.; assay type: functional
# Vero = test: cells; assay type: functional; conditions: Chlorocebus sabaeus
# [12] = viability of uninfected HEp-2 cells – cell-based, HTS, cytotoxicity control for RSV inhibitor project, dose response (AID 2410); assay type: functional; conditions: human respiratory syncytial virus
# INS1 = test: INS-1E survival protection against cytokine death – cell-based, luminescence, retest, dose response (AID 449756); assay type: functional; conditions: Rattus norvegicus;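 note: cell death triggered by IL-1 beta plus TNF-alpha plus IFN-gamma mixture; protective hits raise ATP signal compared with cytokine alone wells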
# SUMO-activating enzyme [13] = biological target: T5, SUMO-activating enzyme (Homo sapiens, UniProt Q9UBT2); test: blockers of UBC9-mediated SUMO conjugation – biochemical, AlphaScreen, SUMOylation inhibitor project, confirmation (AID 2018); assay type: functional
# SUMO-activating enzyme [14] = biological target: T5, SUMO-activating enzyme; test: blockers of SAE1/SAE2–UBC9 SUMO transfer – biochemical, HTRF, uHTS, primary screen (AID 2006); assay type: protein-complex assay
# Mu-type opioid receptor = Mu-type opioid receptor (Homo sapiens, UniProt P35372); assay type: functional, cell-based;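 note: U2OS cells with beta-arrestin recruitment to OPRM1 by beta-gal complementation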
# Chain of Mu-type opioid receptor (P35372 whole entry): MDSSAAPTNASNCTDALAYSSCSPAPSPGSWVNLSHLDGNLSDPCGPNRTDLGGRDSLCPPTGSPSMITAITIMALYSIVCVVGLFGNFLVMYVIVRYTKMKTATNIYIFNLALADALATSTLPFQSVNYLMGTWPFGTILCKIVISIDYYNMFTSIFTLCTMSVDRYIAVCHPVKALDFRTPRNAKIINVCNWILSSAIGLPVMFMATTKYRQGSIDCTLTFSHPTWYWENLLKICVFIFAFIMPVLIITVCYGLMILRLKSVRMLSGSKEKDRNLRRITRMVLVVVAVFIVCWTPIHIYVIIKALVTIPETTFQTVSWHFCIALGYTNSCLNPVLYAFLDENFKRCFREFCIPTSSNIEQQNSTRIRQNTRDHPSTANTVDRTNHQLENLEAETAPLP
# Chain of Photoreceptor-specific nuclear receptor (Q9Y5X4 whole entry, the tested form may be a part): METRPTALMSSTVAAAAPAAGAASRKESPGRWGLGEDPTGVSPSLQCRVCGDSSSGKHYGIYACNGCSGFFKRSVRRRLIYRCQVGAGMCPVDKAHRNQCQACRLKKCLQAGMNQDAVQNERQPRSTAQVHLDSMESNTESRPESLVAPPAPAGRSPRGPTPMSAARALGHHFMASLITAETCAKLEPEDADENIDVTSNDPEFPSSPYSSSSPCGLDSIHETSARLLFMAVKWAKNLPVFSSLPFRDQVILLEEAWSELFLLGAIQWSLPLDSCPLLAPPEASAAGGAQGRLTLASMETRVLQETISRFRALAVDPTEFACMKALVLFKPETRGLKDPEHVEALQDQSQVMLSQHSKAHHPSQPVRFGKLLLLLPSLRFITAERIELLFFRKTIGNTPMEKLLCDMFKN
# Chain of Beta-galactosidase (Q8VNN2 whole entry): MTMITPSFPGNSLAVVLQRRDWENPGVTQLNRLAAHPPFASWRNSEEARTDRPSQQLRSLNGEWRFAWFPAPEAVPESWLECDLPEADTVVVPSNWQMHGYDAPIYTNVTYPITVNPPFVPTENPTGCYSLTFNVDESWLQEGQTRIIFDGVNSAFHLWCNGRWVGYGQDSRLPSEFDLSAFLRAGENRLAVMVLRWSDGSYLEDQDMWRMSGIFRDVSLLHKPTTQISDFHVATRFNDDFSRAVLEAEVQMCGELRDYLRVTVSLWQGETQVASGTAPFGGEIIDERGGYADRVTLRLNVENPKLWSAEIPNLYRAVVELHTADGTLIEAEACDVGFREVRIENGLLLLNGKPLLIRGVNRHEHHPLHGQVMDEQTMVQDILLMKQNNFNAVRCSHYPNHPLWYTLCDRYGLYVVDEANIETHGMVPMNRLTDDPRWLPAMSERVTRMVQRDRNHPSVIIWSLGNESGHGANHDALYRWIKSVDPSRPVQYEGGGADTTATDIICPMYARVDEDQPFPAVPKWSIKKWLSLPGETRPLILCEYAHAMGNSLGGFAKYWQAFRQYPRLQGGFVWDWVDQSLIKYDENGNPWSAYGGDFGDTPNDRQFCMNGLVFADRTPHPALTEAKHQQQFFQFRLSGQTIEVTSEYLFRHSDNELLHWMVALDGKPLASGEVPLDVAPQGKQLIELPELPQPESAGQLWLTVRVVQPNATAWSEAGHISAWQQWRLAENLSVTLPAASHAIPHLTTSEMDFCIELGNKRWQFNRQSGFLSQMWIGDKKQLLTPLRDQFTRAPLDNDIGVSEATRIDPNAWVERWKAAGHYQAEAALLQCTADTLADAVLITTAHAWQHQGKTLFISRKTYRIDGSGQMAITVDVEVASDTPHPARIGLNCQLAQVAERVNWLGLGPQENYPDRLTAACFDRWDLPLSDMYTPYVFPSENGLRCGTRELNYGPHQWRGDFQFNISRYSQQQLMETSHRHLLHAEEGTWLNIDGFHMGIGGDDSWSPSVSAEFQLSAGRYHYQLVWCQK
# T5 sequence (Q9UBE0 whole entry): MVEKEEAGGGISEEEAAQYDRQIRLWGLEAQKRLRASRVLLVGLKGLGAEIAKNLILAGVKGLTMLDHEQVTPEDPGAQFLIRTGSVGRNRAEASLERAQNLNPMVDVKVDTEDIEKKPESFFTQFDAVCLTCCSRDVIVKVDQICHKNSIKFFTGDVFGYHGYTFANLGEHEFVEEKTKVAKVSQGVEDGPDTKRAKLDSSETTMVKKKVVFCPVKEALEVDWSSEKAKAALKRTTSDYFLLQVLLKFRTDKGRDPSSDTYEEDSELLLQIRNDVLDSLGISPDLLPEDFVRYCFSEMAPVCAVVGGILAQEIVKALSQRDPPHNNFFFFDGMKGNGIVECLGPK
# T5 sequence (Q9UBT2 whole entry): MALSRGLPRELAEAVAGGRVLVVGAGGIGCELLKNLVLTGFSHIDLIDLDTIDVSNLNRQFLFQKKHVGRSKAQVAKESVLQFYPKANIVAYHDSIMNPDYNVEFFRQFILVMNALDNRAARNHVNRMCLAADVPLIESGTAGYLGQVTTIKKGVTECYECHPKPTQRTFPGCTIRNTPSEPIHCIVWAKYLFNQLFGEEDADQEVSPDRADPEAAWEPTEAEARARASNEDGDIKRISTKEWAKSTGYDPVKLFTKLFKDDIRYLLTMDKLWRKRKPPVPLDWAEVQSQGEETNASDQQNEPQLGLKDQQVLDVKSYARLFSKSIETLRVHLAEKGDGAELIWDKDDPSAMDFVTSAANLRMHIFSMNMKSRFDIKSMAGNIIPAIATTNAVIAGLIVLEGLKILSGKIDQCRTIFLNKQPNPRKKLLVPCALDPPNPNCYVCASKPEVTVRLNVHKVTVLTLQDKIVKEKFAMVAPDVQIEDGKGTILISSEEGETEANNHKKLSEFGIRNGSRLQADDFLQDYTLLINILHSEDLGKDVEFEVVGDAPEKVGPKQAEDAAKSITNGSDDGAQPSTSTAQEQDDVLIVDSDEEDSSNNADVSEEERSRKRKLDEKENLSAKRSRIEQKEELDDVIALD
# Chain of Eukaryotic translation initiation factor 4E (P63073 whole entry): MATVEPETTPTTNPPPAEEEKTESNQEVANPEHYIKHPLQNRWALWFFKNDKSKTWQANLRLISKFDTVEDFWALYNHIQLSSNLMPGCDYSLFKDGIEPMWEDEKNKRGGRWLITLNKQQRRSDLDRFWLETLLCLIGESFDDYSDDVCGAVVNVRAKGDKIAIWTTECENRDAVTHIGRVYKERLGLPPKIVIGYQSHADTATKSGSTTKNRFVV
compound,measurement,setting,value
Cc1csc(NC(=O)Cc2nn(C)c(=O)c3ccccc23)n1,AC50,[1],5.18 µM (active)
same,AC50,[2],46.5 µM (active)
same,AC50,[3],6.82 µM (active)
COc1ccc(-c2nc3ccc(C)cc3c(=O)o2)cc1OC,IC50,cells,7.49 µM (active)
O=C(Nc1ccccc1)NC1CS(=O)(=O)CC1O (stereo not drawn),EC50,"Troponin, cardiac muscle",> 71.5 µM (inactive)
O=C(Nc1ccc2c(c1)OCCO2)C1CCCN(S(=O)(=O)c2cccnc2)C1 (stereo not drawn),AC50,Escherichia coli,52.7 µM (active)
COc1ccc(C(=O)/C=C/C(=O)N(CC(=O)NCCC(C)C)Cc2cccs2)c(O)c1,AC50,[1],13.2 µM (active)
same,AC50,[2],51.7 µM (active)
same,AC50,[3],3.49 µM (active)
O=C(NC1CC1)c1ccc(N2CCCCC2)c([N+](=O)[O-])c1,AC50,Escherichia coli,73.1 µM (active)
CCNc1nc2c(c(=O)n(C)c(=O)n2C)n1Cc1ccc(Cl)cc1,IC50,[4],14.7 µM (inactive)
NC(=O)NC(=O)COC(=O)c1cccc(NS(=O)(=O)/C=C/c2ccccc2)c1,EC50,"Troponin, cardiac muscle",> 71.5 µM (inactive)
same,IC50,[5],50 µM (inactive)
CC1Cc2cc(/C=C3/SC(=S)NC3=O)ccc2O1 (stereo not drawn),IC50,Caspase-3,16.9 µM (active)
same,IC50,[6],8.72 µM (active)
same,AC50,[7],0.308 µM (active)
same,IC50,[8],39.1 µM (active)
same,IC50,[9],9.86 µM (active)
same,IC50,cells,39.3 µM (active)
CC(=O)c1c(C)[nH]c(C(=O)CSc2nnc3ccccn23)c1C,AC50,Escherichia coli,27 µM (active)
CCN1CCC2(CC1)N=C(c1ccc(F)cc1)C(=S)N2C(=O)c1ccc(C)cc1,IC50,[10],> 100 µM (inactive)
same,IC50,[11],15.3 µM (active)
O=C(COC(=O)c1ccc(O)cc1O)c1ccc2c(c1)OCO2,IC50,cells,18.2 µM (active)
CCOC(=O)N1CCN(C(=O)/C=C/c2ccc(C(C)(C)C)cc2)CC1,IC50,Beta-galactosidase,> 80 µM (inactive)
Cc1nc([N+](=O)[O-])c(Sc2nc3ccccc3n2C)n1Cc1ccccc1,CC50,Vero,20.8 µM (active)
same,CC50,[12],13.5 µM (active)
O=C(Nc1ccc(N2CCN(C(=O)c3ccccc3)CC2)cc1)c1ccc2c(c1)OCO2,IC50,[4],13.3 µM (inactive)
COCCC1CCCCN1C(=O)c1cc(COc2ccc(-n3cncn3)cc2)on1 (stereo not drawn),AC50,[1],1.22 µM (active)
same,AC50,[2],50.5 µM (active)
same,AC50,[3],0.57 µM (active)
same,AC50,INS1,3.08 µM (active)
NC(=O)CC(NC(=O)Cc1ccc(Br)cc1)c1ccc(N2CCC(Br)CC2)c([N+](=O)[O-])c1 (stereo not drawn),IC50,SUMO-activating enzyme [13],28.3 µM (active)
same,IC50,SUMO-activating enzyme [14],34.5 µM (active)
CSc1ccc(/C=C/C(=O)c2ccc(NC(=O)Cc3ccccc3)cc2)cc1,IC50,Beta-galactosidase,> 80 µM (inactive)
O=C(Nc1cccc(Cl)c1)c1ccc(OC(=S)N2CCOCC2)cc1,IC50,Caspase-3,31.4 µM (active)
same,IC50,[6],> 100 µM (inactive)
same,IC50,[8],> 100 µM (inactive)
same,IC50,[9],2.85 µM (active)
COc1cc(-c2nc3cc(C)ccn3c2NC2CCCCC2)ccc1-c1ccc(C(C)=O)cc1,IC50,Beta-galactosidase,118 µM (inactive)
Cc1cc(C)cc(NC(=O)CCc2nc3sc4c(c3c(=O)[nH]2)CCCC4)c1,IC50,[4],0.277 µM (active)
Cc1nc(C)c(-c2csc(Nc3ncccc3C)n2)s1,IC50,Caspase-3,16.4 µM (active)
same,IC50,[6],5.89 µM (active)
same,IC50,[8],> 100 µM (inactive)
same,IC50,[9],3.96 µM (active)
N#Cc1ccc(S(=O)(=O)NC2CCCCNC2=O)cc1 (stereo not drawn),EC50,"Troponin, cardiac muscle",> 71.4 µM (inactive)
O=C(CSC1=NS(=O)(=O)c2ccccc2N1)N1CCCCC1,EC50,"Troponin, cardiac muscle",> 71.5 µM (inactive)
COc1ccc(-c2[nH]ncc2CNC(C)c2ccccc2Cl)cc1F (stereo not drawn),CC50,Vero,> 25 µM (active)
CCC(CO)Oc1cc(NCc2ccncc2)c2ncn(C(C)C)c2c1 (stereo not drawn),IC50,[10],37.6 µM (active)
same,IC50,[11],24.5 µM (active)
O=C(N/N=C/c1ccc([N+](=O)[O-])o1)c1ccncc1,IC50,[10],39.9 µM (active)
same,IC50,[11],35.3 µM (active)
O=NN(CC(=O)NNc1ccccc1)CC(=O)NNc1ccccc1,IC50,[4],18.3 µM (inactive)
CCCN1C[C@H](CSC)C[C@@H]2c3cccc4[nH]cc(c34)C[C@H]21 [PERGOLIDE MESYLATE],EC50,Mu-type opioid receptor,92.5 µM (inactive)
